Tests used:
[1] = molecular target: Melanocyte-stimulating hormone receptor (Mus musculus, UniProt Q01727); experiment: Displacement of [125I]NDP-MSH from MC1 receptor in mouse B16 cells; format: cell-based
Melanocortin receptor 3 = Melanocortin receptor 3 (Homo sapiens, UniProt P41968); experiment: Displacement of [125I]NDP-MSH from human recombinant MC3 receptor expressed in Sf9 cells
Melanocortin receptor 4 = Melanocortin receptor 4 (Homo sapiens, UniProt P32245); experiment: Displacement of [125I]NDP-MSH from human recombinant MC4 receptor expressed in Sf9 cells
Chain of Melanocortin receptor 4 (P32245 whole entry): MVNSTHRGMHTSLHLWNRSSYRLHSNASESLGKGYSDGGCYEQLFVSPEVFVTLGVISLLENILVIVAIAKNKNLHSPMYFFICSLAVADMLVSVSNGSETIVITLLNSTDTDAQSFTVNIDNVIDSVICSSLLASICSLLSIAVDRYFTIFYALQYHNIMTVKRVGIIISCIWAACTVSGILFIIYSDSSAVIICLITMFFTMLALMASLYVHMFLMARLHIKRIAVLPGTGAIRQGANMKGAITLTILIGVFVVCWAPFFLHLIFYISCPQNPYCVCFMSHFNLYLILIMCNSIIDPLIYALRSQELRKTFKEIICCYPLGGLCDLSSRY

Melanocortin receptor 5 = Melanocortin receptor 5 (Homo sapiens, UniProt P33032); experiment: Displacement of [125I]NDP-MSH from human recombinant MC5 receptor expressed in Sf9 cells
Chain of Melanocortin receptor 5 (P33032 whole entry): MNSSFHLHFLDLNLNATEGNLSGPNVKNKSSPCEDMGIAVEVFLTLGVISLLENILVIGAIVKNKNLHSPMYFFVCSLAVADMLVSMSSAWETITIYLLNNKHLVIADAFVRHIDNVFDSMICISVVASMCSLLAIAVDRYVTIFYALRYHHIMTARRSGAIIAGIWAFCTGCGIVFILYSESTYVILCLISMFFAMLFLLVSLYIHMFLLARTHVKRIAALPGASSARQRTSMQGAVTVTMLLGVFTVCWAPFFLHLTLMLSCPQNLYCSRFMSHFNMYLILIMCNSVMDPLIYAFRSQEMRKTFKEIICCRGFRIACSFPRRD

Chain of Melanocyte-stimulating hormone receptor (Q01727 whole entry): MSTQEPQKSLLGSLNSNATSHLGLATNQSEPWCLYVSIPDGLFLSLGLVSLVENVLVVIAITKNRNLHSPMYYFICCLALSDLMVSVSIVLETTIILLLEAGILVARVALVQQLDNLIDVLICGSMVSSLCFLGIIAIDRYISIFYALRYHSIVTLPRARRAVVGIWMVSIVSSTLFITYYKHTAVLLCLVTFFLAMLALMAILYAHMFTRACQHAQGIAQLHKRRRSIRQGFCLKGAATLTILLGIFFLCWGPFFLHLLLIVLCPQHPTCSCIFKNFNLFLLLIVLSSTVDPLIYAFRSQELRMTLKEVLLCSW
Chain of Melanocortin receptor 3 (P41968 whole entry): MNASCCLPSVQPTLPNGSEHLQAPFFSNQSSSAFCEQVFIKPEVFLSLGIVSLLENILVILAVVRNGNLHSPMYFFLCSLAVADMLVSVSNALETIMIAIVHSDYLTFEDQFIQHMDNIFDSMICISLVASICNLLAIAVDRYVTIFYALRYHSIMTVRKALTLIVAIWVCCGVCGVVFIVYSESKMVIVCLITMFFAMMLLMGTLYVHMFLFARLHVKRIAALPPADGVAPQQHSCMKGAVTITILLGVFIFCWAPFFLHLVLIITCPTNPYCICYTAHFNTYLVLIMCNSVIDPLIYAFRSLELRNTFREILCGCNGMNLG

Row | SMILES | Ki [1] [µM] | Ki (Melanocortin receptor 3) [µM] | Ki (Melanocortin receptor 4) [µM] | Ki (Melanocortin receptor 5) [µM]
1 | NCC1CCC(CN(Cc2ccccc2)C(=O)CCCc2c[nH]c3ccccc23)CC1 (stereo not drawn) | 2.5 | 27 | 4.4 | 18
2 | CC1CC(CC2CCC(N(Cc3ccccc3)C(=O)CCCc3c[nH]c4ccccc34)C(C)C2)CCC1N (stereo in doubt; form 4) | 1.3 | 12 | 3.8 | 5.6
3 | CC1CC(CC2CCC(N(Cc3ccccc3)C(=O)CCCc3c[nH]c4ccccc34)C(C)C2)CCC1N (stereo in doubt; form 3) | 1.7 | 6.6 | 3.7 | 6.9
4 | CCN(CC)c1ccc(CN(CCCCCN)C(=O)CCCc2c[nH]c3ccccc23)cc1 | 6.8 | 33 | 25 | 34
5 | NCCCCCN(CCc1ccc2ccccc2c1)C(=O)Cc1c[nH]c2ccccc12 | 4.5 | 13 | 9.4 | 8
6 | NCCCCCCCN(C/C(Cl)=C/c1ccccc1)C(=O)CCCc1c[nH]c2ccccc12 | 5 | 42 | 7.4 | 29
7 | NCCCCCN(Cc1ccccc1)C(=O)[C@@H](N)Cc1ccc2ccccc2c1 | 10 | 39 | 21 | 34
8 | NCCCCCCCN(Cc1ccccc1)C(=O)CCCc1c[nH]c2ccccc12 | 4 | 28 | 3.8 | 3.2
9 | NCC1CCC(CN(C/C(Cl)=C/c2ccccc2)C(=O)CCCc2c[nH]c3ccccc23)CC1 (stereo not drawn) | 1.6 | 33 | 2.5 | 11
10 | COc1ccc(CN(C(=O)CCCc2c[nH]c3ccccc23)C2CCC(CC3CCC(N)CC3)CC2)cc1OC (stereo not drawn) | 3.2 | 22 | 3.7 | 8.3
11 | NCCCCCN(Cc1ccccc1)C(=O)[C@H](N)Cc1ccc2ccccc2c1 | 5 | 41 | 13 | 24
12 | NC1CCC(CC2CCC(N(C/C=C/c3ccccc3)C(=O)CCCc3c[nH]c4ccccc34)CC2)CC1 (stereo not drawn) | 2.7 | 16 | 9.2 | 7.7
13 | N=C(N)NCCCN(Cc1ccc2ccccc2c1)C(=O)Cc1c[nH]c2ccccc12 | 35 | 228 | 150 | 28
14 | NC1CCC(CC2CCC(N(C/C(Cl)=C/c3ccccc3)C(=O)COc3ccc4ccccc4c3)CC2)CC1 (stereo in doubt; form 5) | 1.9 | 22 | 3.5 | 6.7
15 | NC1CCC(CC2CCC(N(Cc3ccccc3F)C(=O)CCCc3c(Cc4ccc(O)cc4)[nH]c4ccccc34)CC2)CC1 (stereo not drawn) | 1 | 55 | 1.5 | 36
16 | N[C@H]1CC[C@H](NC(=O)NC2CCCC(N(Cc3ccccc3)C(=O)CCCc3c[nH]c4ccccc34)C2)CC1 (stereo partly drawn) | 2.7 | 59 | 7.3 | 37
17 | C=C(Br)CN(C(=O)CCCc1c[nH]c2ccccc12)C1CCC(CC2CCC(N)CC2)CC1 (stereo in doubt; form 3) | 1 | 21 | 3.3 | 7.8
18 | COc1cc(Cl)c(CN(C(=O)CCCc2c[nH]c3ccccc23)C2CCC(CC3CCC(N)CC3)CC2)cc1OC (stereo in doubt; form 1) | 2.1 | 24 | 2.3 | 4.3
19 | C/C(=C\c1ccccc1)CN(CCCN)C(=O)Cc1c[nH]c2ccccc12 | 9.3 | 44 | 67 | 89
20 | N=C(N)NC1CCC(CC2CCC(N(C/C(Cl)=C/c3ccccc3)C(=O)CCCc3c[nH]c4ccccc34)CC2)CC1 (stereo in doubt; form 1) | 5.4 | 9.6 | 4 | 24
21 | COc1cc(Cl)c(CN(C(=O)CCCc2c(Cc3ccc(O)cc3)[nH]c3ccccc23)C2CCC(CC3CCC(N)CC3)CC2)cc1OC (stereo not drawn) | 0.63 | 8.3 | 1.9 | 11
22 | NCCCN(C/C(Cl)=C/c1ccccc1)C(=O)CCCc1c[nH]c2ccccc12 | 6.1 | 18 | 7 | 31
23 | NCCCCCN(C/C(Cl)=C\c1ccccc1)C(=O)CCCc1c[nH]c2ccccc12 | 0.77 | 5.4 | 2.3 | 28
24 | NC1CCC(CC2CCC(N(Cc3ccccc3F)C(=O)CCCc3c[nH]c4ccccc34)CC2)CC1 (stereo not drawn) | 2.4 | 20 | 3.7 | 7.2
25 | NCCCCCCN(Cc1ccccc1)C(=O)CCCc1c(Cc2ccc(O)cc2)[nH]c2ccccc12 | 2.3 | 36 | 3.7 | 2.1
26 | C/C(=C\c1ccccc1)CN(CCCN)C(=O)CCCc1cccs1 | 6.8 | 63 | 14 | 91
27 | CC(C)N(CCCCN)C(=O)c1c(Cc2ccc(O)cc2)[nH]c2ccccc12 | 90 | 106 | 165 | 353

Source: ChEMBL document CHEMBL1149662, “Design and synthesis of a library of tertiary amides: evaluation as mimetics of the melanocortins' active core” (Bioorg Med Chem, 2007)
